Consider 51 compounds from PubChem BioAssay AID652289 (Broad Institute, 2013).

Several values for one entry are separate records, joined by “and”; a condition that tells them apart may be missing. Equal entries are not always repeated. Activity calls are given as the source filed them. No rule for the calls is given here. A value given as a limit tells only on which side of the number the result lay.

Assay [1] is described as follows: light production inducers, absence of autoinducers, V. cholerae bh1651 strain, confirmatory (AID 652289). To be noted: V. cholerae BH1651 luxOD47E, luciferase light induction, 6 h.
Assay [2] deals with V. cholerae BH1651 luxOD47E, luciferase light induction, 6 h. Described as above.

As for `O=C(Nc1nnc(-c2ccc3c(c2)OCCO3)o1)C1CCC1`, the light induction in assay [1] (at 100 µM (top of the series)) was 0.013% (inactive).

Turning to `O=C(CC1CCCCC1)Nc1nnc(-c2cccnc2)o1`, the light induction in assay [1] (at 80 µM (top of the series)) is -0.016% (inactive).

Regarding `CC(C)(C)OC(=O)N1CCC(C(=O)Nc2nnc(-c3ccc4c(c3)OCCO4)o2)CC1`, the light induction in assay [1] (at 100 µM (top of the series)) is 0.028% (inactive).

As for `CCCCCCCCCC(=O)[C@H](O)CC` (racemic), the light induction in assay [1] (at 100 µM (top of the series)) was 0.014% (inactive).

With `COc1ccc(-c2nnc(NC(=O)C3CCCCC3)o2)cc1`, the AC40 in assay [2] is > 100 µM (inactive).

With `O=C(Nc1nnc(-c2ccc3c(c2)OCCO3)o1)C(F)(F)c1ccccc1`, the light induction in assay [1] (at 100 µM (top of the series)) is -0.004% (inactive).

For `CN1CCC(C(=O)Nc2nnc(-c3ccc4c(c3)OCCO4)o2)CC1`, the light induction in assay [1] (at 100 µM (top of the series)) was 0.052% (inactive).

Regarding `Cn1nc(NC(=O)c2ccco2)c2ccccc21`, the AC40 in assay [2] was 89.4 µM.

For `Cc1cc(F)c2cc3c(NC(=O)c4ccco4)nn(C)c3nc2c1`, the AC40 in assay [2] was 33.5 µM.

On to `Cc1ccc2cc3c(NC(=O)Cc4ccco4)nn(C)c3nc2c1`, for which the light induction in assay [1] (at 100 µM (top of the series)) is 1.12% (inactive).

With `Cc1ccc2cc3c(NC(=O)c4cccs4)nn(C)c3nc2c1`, in assay [2], the AC40 was 70.8 µM.

As to `Cc1cc2nc3c(cc2cc1F)c(NC(=O)c1ccco1)nn3C`, in assay [2], the AC40 was 68.7 µM.

In the case of `O=C(Nc1nnc(-c2ccc3c(c2)OCCO3)o1)C1CC1`, the light induction in assay [1] (at 100 µM (top of the series)) was 0.004% (inactive).

On to `CCC(C)(C)C(=O)Nc1nnc(-c2ccc3c(c2)OCCO3)o1`, for which the light induction in assay [1] (at 80 µM (top of the series)) is -0.006% (inactive).

Take `COc1ccccc1-c1nnc(NC(=O)C2CCCCC2)o1`: the AC40 in assay [2] is > 100 µM (inactive).

In the case of `O=C(Nc1nnc(-c2ccncc2)o1)C1CCC1`, the light induction in assay [1] (at 100 µM (top of the series)) was 0.055% (inactive).

In the case of `Cn1nc(NC(=O)c2ccco2)c2cccnc21`, in assay [2], the AC40 is 58.4 µM.

For `O=C(CC1CCCCC1)Nc1nnc(-c2ccc3c(c2)CCCC3)o1`, the light induction in assay [1] (at 35 µM (top of the series)) is 0.061% (inactive).

With `COc1ccc(-c2nnc(NC(C)=O)o2)cc1`, the light induction in assay [1] (at 100 µM (top of the series)) was 0.045% (inactive).

For `O=C(Cc1ccc(-c2ccccc2)cc1)NC1CCC1`, the light induction in assay [1] (at 100 µM (top of the series)) is -0.023% (inactive).

For the compound `CCCCCCCCCC(=O)C(O)CC` (stereo unspecified), the light induction in assay [1] (at 50 µM (top of the series)) is 0.038% (inactive).

As to `COc1ccc2cc3c(NC(=O)c4ccco4)nn(C)c3nc2c1`, the AC40 in assay [2] was 2.73 µM.

As to `CCc1ccc2cc3c(NC(=O)c4ccco4)nn(C)c3nc2c1`, in assay [2], the AC40 is 32.9 µM.

Take `Cc1ccc2cc3c(NC(=O)c4ccoc4)nn(C)c3nc2c1`: the light induction in assay [1] (at 80 µM (top of the series)) was 2.86% (inactive).

`O=C(Nc1nnc(-c2cccc(Cl)c2)o1)C1CCCCC1`: the light induction in assay [1] (at 80 µM (top of the series)) was 0.065% (inactive).

For `O=C(Nc1nnc(-c2ccc3c(c2)OCCO3)o1)C1CCCCCC1`, the AC40 in assay [2] was 6.99 µM.

Turning to `Cc1ccc2cc3c(NC(=O)c4ccc(C)o4)nn(C)c3nc2c1`, in assay [1] (at 100 µM (top of the series)), the light induction is -0.015% (inactive).

Take `COc1cccc(-c2nnc(NC(=O)C3CCCCC3)o2)c1`: the light induction in assay [1] (at 100 µM (top of the series)) is -0.005% (inactive).

As for `O=C(Nc1nnc(-c2cccnc2)o1)C1CCC1`, in assay [1] (at 100 µM (top of the series)), the light induction was 0.001% (inactive).

For the compound `O=S(=O)(Nc1nnc(-c2ccc3c(c2)OCCO3)o1)c1ccc(Cl)cc1`, the light induction in assay [1] (at 100 µM (top of the series)) is -0.005% (inactive).

For the compound `O=C(Nc1nnc(-c2ccc3c(c2)OCCO3)o1)C1CCCCC1`, in assay [2], the AC40 is 5.31 µM and 2.57 µM.

For `CN(C)/C=N/c1nnc(-c2ccc3c(c2)OCCO3)o1`, the light induction in assay [1] (at 100 µM (top of the series)) is 0.039% (inactive).

Turning to `O=C(Nc1nnc(-c2ccccc2Cl)o1)C1CCCCC1`, the light induction in assay [1] (at 100 µM (top of the series)) is -0.01% (inactive).

Regarding `O=C(Nc1nnc(-c2cccnc2)o1)C1CCCCC1`, the AC40 in assay [2] is 61.3 µM.

`Cn1ccc(NC(=O)c2ccco2)n1`: the light induction in assay [1] (at 100 µM (top of the series)) is 0.053% (inactive).

Take `Cc1ccc2cc3c(NC(=O)c4ccco4)nn(C)c3nc2c1`: the AC40 in assay [2] was 5.26 µM and 15.3 µM.

As to `O=C(Nc1nnc(-c2ccc3c(c2)CCCC3)o1)C1CCC1`, the light induction in assay [1] (at 80 µM (top of the series)) was -0.005% (inactive).

In the case of `CCn1nnnc1NCc1ccc(C(C)C)cc1`, the light induction in assay [1] (at 100 µM (top of the series)) is -0.004% (inactive).

As to `Cn1nc(NC(=O)c2ccco2)c2cc3ccccc3nc21`, in assay [2], the AC40 was 3.58 µM.

`COc1ccc(S(=O)(=O)Nc2nnc(-c3ccc4c(c3)OCCO4)o2)cc1`: the light induction in assay [1] (at 100 µM (top of the series)) is 0.005% (inactive).

For the compound `c1ccc(CNc2nnc(-c3ccc4c(c3)OCCO4)o2)cc1`, the light induction in assay [1] (at 100 µM (top of the series)) is -0.004% (inactive).

For the compound `Cn1nc(NC(=O)c2ccco2)c2cc3ccc(C(C)(C)C)cc3nc21`, in assay [1] (at 100 µM (top of the series)), the light induction is 0% (inactive).

With `Cc1ccc2cc3c(NC(=O)c4ccccn4)nn(C)c3nc2c1`, the light induction in assay [1] (at 100 µM (top of the series)) is 0.001% (inactive).

As for `C(=N\c1nnc(-c2ccc3c(c2)OCCO3)o1)/c1ccccc1`, in assay [1] (at 100 µM (top of the series)), the light induction was 0.005% (inactive).

Turning to `Cc1cc2cc3c(NC(=O)c4ccco4)nn(C)c3nc2cc1C`, in assay [2], the AC40 was 63.3 µM.

For `O=C(Nc1nnc(-c2ccc(Cl)cc2)o1)C1CCCCC1`, the light induction in assay [1] (at 80 µM (top of the series)) is -0.026% (inactive).

With `Cc1ccc2cc3c(NC(=O)c4cc5ccccc5o4)nn(C)c3nc2c1`, in assay [1] (at 100 µM (top of the series)), the light induction is -0.007% (inactive).

Take `Cc1ccc2cc3c(NC(=O)C4CCCC4)nn(C)c3nc2c1`: in assay [2], the AC40 was 40.6 µM.

With `O=C(Nc1nnc(C2CCCC2)o1)C1CCCCC1`, in assay [1] (at 100 µM (top of the series)), the light induction was -0.015% (inactive).

On to `Cc1cc(F)cc2nc3c(cc12)c(NC(=O)c1ccco1)nn3C`, for which the AC40 in assay [2] is 41.3 µM.

As to `CC(C)c1ccc2cc3c(NC(=O)c4ccco4)nn(C)c3nc2c1`, the light induction in assay [1] (at 100 µM (top of the series)) was 0.507% (inactive).
